Assay results from US8772318B2, “Methods and compositions related to targeting monoacylglycerol lipase” (The Scripps Research Institute, priority 2008, dated 2014).

Tests used:
[1] = molecular target: T1, FAAH (Mus musculus, UniProt O08914); test: Competitive ABPP, mouse brain membrane proteome; assay type: biochemical
T1 construct: from tissue; host or cells: mouse brain membrane fraction
T1 sequence (O08914 1-579): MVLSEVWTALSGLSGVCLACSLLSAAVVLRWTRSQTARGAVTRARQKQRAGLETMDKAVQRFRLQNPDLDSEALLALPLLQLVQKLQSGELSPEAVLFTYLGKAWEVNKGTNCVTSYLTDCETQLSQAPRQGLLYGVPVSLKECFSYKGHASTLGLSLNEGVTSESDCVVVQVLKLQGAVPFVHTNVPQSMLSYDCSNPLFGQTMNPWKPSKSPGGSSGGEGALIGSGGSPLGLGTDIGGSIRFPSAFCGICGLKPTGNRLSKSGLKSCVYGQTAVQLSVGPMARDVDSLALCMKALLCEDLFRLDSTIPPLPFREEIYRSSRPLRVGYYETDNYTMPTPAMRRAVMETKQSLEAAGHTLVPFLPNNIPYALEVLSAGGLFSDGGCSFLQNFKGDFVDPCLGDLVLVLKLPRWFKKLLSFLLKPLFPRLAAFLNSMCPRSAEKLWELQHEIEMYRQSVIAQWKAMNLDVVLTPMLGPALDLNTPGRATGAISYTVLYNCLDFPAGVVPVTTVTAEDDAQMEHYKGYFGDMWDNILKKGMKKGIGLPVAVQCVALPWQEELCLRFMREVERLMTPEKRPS
Source text: (§1) First, serine hydrolases are susceptible to covalent inactivation by specific chemical groups that show little or no cross-reactivity with other enzyme classes. […] Second, the functional state of serine hydrolases can be collectively profiled in native biological systems using activity-based protein profiling (ABPP) methods (Cravat et al., Annu Rev Biochem 77:383-414, 2008). ABPP of serine hydrolases uses reporter-tagged fluorophosphonates (FPs), which serve as general activity-based probes for this large and diverse enzyme class (Liu et al., Proc. Natl. Acad. Sci. U.S.A. 96:14694-9, 1999). When performed in a competitive mode, ABPP can serve as a powerful screen to evaluate the potency and selectivity of small-molecule enzyme inhibitors directly in complex proteomes. The screen can be performed as described in the art, e.g., Liu et al., Proc. Natl. Acad. Sci. U.S.A. 96:14694-9, 1999; Li et al., J. Am. Chem. Soc. 129:9594-5, 2007; Leung et al., Nat. Biotech. 21:687-91, 2003; and Greenbaum et al., Mol. Cell. Proteomics 1:60-68, 2002.
(§2) Competitive activity-based protein profiling (ABPP) experiments. In vitro inhibitor selectivity was examined using a competitive ABPP method as described in the art (e.g., Li et al., J. Am. Chem. Soc. 129:9594-5, 2007; and Leung et al., Nat. Biotech. 21:687-91, 2003). Briefly, mouse brain membrane proteomes, prepared as described herein, were diluted to 1 mg/ml in PBS and pre-incubated with varying concentrations of inhibitors (1 nM to 10 μM) for 30 min at 37° C. prior to the addition of a FP-rhodamine at a final concentration of 2 μM in a 50 μl of total reaction volume. After 30 min at room temperature, the reactions were quenched with 4×SDS-PAGE loading buffer, boiled for 5 min at 90° C., subjected to SDS-PAGE, and visualized in-gel using a flatbed fluorescence scanner.
(§3) Every 10 min, 50 ul of the reaction was removed and treated with FP-rhodamine (2 μM) for 2 min, quenched with 4×SDS-PAGE loading buffer, and boiled for 5 min at 90° C. The combined reactions were subjected to SDS-PAGE and visualized in-gel using a flatbed fluorescence scanner. The percentage activity remaining was determined by measuring the integrated optical density corresponding to the MAGL or FAAH bands and the results were fit to an exponential curve to determine the pseudo-first order rate constants.

[2] = molecular target: T2, MAGL (Mus musculus, UniProt O35678); test: Competitive ABPP, mouse brain membrane proteome; assay type: biochemical
T2 construct: from tissue; host or cells: mouse brain membrane fraction (C57Bl/6 mice for the in vivo studies)
T2 sequence (O35678 1-303): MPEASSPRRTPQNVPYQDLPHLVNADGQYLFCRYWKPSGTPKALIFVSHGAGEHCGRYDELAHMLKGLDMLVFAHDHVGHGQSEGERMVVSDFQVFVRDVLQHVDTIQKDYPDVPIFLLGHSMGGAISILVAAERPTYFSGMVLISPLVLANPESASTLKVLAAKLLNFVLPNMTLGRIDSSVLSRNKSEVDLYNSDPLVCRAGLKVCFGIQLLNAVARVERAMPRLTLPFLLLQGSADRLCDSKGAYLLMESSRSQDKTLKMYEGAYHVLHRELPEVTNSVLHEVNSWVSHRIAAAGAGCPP
Source text: as §1, §2, §3

[3] = molecular target: T3, ABHD6 (Mus musculus, UniProt Q8R2Y0); test: Competitive ABPP, mouse brain membrane proteome; assay type: biochemical
T3 construct: from tissue; host or cells: mouse brain membrane fraction
T3 sequence (Q8R2Y0 1-336): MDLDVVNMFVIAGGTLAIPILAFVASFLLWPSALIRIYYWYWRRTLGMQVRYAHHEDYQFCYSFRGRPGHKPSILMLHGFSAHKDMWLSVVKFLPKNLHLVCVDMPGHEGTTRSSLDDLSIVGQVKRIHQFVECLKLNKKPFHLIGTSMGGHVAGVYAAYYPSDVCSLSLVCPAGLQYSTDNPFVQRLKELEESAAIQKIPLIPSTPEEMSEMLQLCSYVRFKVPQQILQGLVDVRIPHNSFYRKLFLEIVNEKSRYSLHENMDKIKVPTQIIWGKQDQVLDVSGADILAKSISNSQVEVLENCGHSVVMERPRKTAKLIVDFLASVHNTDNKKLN
Source text: as §1, §2, §3

[4] = tested on: human cancer cell lines (C8161, SKOV3, 231MFP, MUM2C, OVCAR3); test: Lipid measurements in cancer cells; assay type: cell-based; conditions: aggressive melanoma, ovarian, breast cancer cells
Protocol: Pharmacological inhibition of MAGL in cancer cells. Pharmacological inhibition studies were conducted as described previously (Chiang et al., Chem. Biol. 13:1041-1050, 2006). Cancer cells were maintained in RPMI medium 1640 with 10% (v/v) fetal calf serum at 37° C. in a humidified atmosphere of 5% CO2/95% air. At 80% confluency, cells were trypsinized and counted using a hemocytometer, and 1×10^6 cells were plated in 6 cm dishes (subconfluent). […] After incubation for 4 hr, the cells were harvested and analyzed by ABPP or LC-MS.
Lipid measurements in cancer cells. Lipid measurements were conducted similarly to protocols described previously (Chiang et al., 2006; supra). Cancer cells were grown in serum-free media for 4 hrs to minimize the contribution of serum-derived lipids to the cellular profiles. The cells (1×10^6 cells/6 cm dish, 80% confluency) were washed with twice with phosphate buffer saline (PBS), isolated by centrifugation at 1,400×g, and dounce-homogenized in 4 ml of a 2:1:1 mixture of chloroform:methanol:Tris buffer. Samples were homogenized in the presence of the following synthetic standards: C12:0 MAGE (10 nmol), C15:0 FFA (10 nmol). Organic and aqueous layers were separated by centrifugation at 2000×g for 5 min and the organic layer was collected. The aqueous layer was acidified (for metabolites such as LPA) by adding 5% formic acid, followed by the addition of 2 ml chloroform. The mixture was vortexed, and the organic layers were combined, dried down under N2 and dissolved in 100 μl chloroform, of which 30 μl was analyzed by LC-MS.
LC-MS analysis was performed by using an Agilent 1100 LC-MSD SL instrument. […] Mobile phase A was composed of a 95:5 ratio of water:methanol, and mobile phase B consisted of 2-propanol, methanol, and water in a 60:35:5 ratio. Solvent modifiers such as 0.1% formic acid and 0.1% ammonium hydroxide were used to assist ion formation as well as to improve the LC resolution in both positive and negative ionization modes, respectively. The flow rate for each run started at 0.1 ml/min for 5 min, to alleviate backpressure associated with injecting chloroform. The gradient started at 0% B and increased linearly to 100% B over the course of 45 min with a flow rate of 0.4 ml/min, followed by an isocratic gradient of 100% B for 17 min at 0.5 ml/min before equilibrating for 8 min at 0% B with a flow rate of 0.5 ml/min. MS analysis was performed with an electrospray ionization (ESI) source. The capillary voltage was set to 3.0 kV, and the fragmentor voltage was set to 100 V. The drying gas temperature was 350° C., the drying gas flow rate was 10 L/min, and the nebulizer pressure was 35 psi.
Lipidomic analysis was performed in both targeted and untargeted mode by LC-MS analysis. Standard lipid classes were quantitated by targeting using selected ion monitoring (SIM) (except for very high-abundance metabolites which were quantitated by untargeted analysis) and identities of metabolites were confirmed by coelution of metabolites with their respective standards and mass accuracy to within 10 ppm as determined with an accurate mass Agilent 6520 Accurate Mass QTOF-MS-MS. These lipids were quantified by measuring the area under the peak and were normalized to an internal standard (C12:0 MAGE in positive mode or C15:0 FFA in negative mode). […]

[5] = molecular target: T4, MAGL (Homo sapiens, UniProt Q99685); test: shRNA knockdown of MAGL, activity by ABPP and C20:4 MAG hydrolysis; assay type: cell-based; conditions: aggressive cancer lines, ABPP
T4 construct: endogenous in cells; host or cells: human cancer lines (C8161, MUM2B, MUM2C, SKOV3, OVCAR3, 231MFP, MCF7)
T4 sequence (Q99685 1-303): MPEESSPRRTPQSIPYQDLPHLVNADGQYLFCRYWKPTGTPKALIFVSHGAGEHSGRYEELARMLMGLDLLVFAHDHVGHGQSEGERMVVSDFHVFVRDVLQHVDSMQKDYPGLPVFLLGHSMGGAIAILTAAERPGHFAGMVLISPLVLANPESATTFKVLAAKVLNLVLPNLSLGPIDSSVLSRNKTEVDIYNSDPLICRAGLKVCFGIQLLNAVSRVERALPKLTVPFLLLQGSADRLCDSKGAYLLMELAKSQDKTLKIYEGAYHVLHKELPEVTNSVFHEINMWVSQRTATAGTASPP
Protocol: ABPP and hydrolytic activity assays of cancer cell proteomes. Identification and comparative quantitation of serine hydrolase activities from cancer cell proteomes by ABPP-MudPIT or gel-based ABPP was conducted as previously described using FP-biotin (5 μM) and FP-rhodamine (2 μM), respectively (Jessani et al., Proc. Natl. Acad. Sci. U.S.A 99:10335-10340, 2002; and Jessani et al., Nat. Methods 2:691-697, 2005). C20:4 MAG hydrolytic activity assays were performed as described previously (Blankman et al., Chem. Biol. 14:1347-1356, 2007). For ABPP experiments, cell lysate proteomes were treated with 2 μM FP-rhodamine for 30 min at room temperature (50 μl total reaction volume). Reactions were quenched with one volume of standard 4×SDS/PAGE loading buffer (reducing), separated by SDS/PAGE (10% acrylamide), and visualized in-gel with a Hitachi FMBio IIe flatbed fluorescence scanner (MiraiBio). Integrated band intensities were calculated for the labeled proteins and averaged from three independent cell samples to determine the level of each enzyme activity. IC50 values were determined from dose-response curves from three trials at each inhibitor concentration by using SigmaPlot 10.0. MAGL expression was also assessed by western blotting using standard procedures.
RNA interference studies in human cancer cell lines. […]

Row | Compound | effect on FAAH in competitive ABPP screen (FIG. 1B) [1] | effect on MAGL in competitive ABPP screen (FIG. 1B) [2] | effect on ABHD6 in competitive ABPP screen (FIG. 1B) [3] | FFA levels in shMAGL cells [4] | MAG levels in shMAGL cells [4] | other serine hydrolase activities [5]
1 | O=C(Oc1ccc([N+](=O)[O-])cc1)N1CCN(C(c2ccc(F)cc2)c2ccc(F)cc2)CC1 [WWL162] | greatly reducing activity | preserve potency | preserve potency | – | – | –
2 | shMAGL2: short hairpin RNA oligonucleotide for MAGL, 5′-AGACTACCCTGGGCTTCCT-3′ (SEQ ID NO:2) (expressed or natural sequence) | – | – | – | corresponding reductions | significant elevations | unaffected
